Assay results reported in ChEMBL document CHEMBL1149449 (Bioorg Med Chem Lett, 2006).

Assays:
[1] = tested on: Human immunodeficiency virus 1; test: Antiviral activity in cells infected with wild-type HIV1 1002-60C mutant in presence of NHS; assay type: functional; conditions: Human immunodeficiency virus 1, 1002-60C; read-out: CIC95
[2] = tested on: Human immunodeficiency virus 1; test: Antiviral activity in cells infected with wild-type HIV1 4X mutant; assay type: functional; conditions: Human immunodeficiency virus 1, 4X; read-out: CIC95
[3] = target: Human immunodeficiency virus type 1 protease (Human immunodeficiency virus 1, UniProt Q72874); test: Inhibitory activity against isolated wild-type HIV1 protease
[4] = tested on: Human immunodeficiency virus 1; test: Antiviral activity in cells infected with wild-type HIV1 H93B in presence of FBS; assay type: functional; conditions: Human immunodeficiency virus 1, H93B; read-out: CIC95
[5] = tested on: Human immunodeficiency virus 1; test: Antiviral activity in cells infected with wild-type HIV1 1002-60C mutant; assay type: functional; conditions: Human immunodeficiency virus 1, 1002-60C; read-out: CIC95
[6] = tested on: Human immunodeficiency virus 1; test: Antiviral activity in cells infected with wild-type HIV1 1026-60C mutant in presence of NHS; assay type: functional; conditions: Human immunodeficiency virus 1, 1026-60C; read-out: CIC95
[7] = tested on: Human immunodeficiency virus 1; test: Antiviral activity in cells infected with wild-type HIV1 NL4-3 in presence of NHS; assay type: functional; conditions: Human immunodeficiency virus 1, NL4-3; read-out: CIC95
[8] = tested on: Human immunodeficiency virus 1; test: Antiviral activity in cells infected with wild-type HIV1 NL4-3 in presence of FBS; assay type: functional; conditions: Human immunodeficiency virus 1, NL4-3; read-out: CIC95
[9] = target: Human immunodeficiency virus type 1 protease (Human immunodeficiency virus 1) (UniProt Q72874); test: Ratio of inhibitory effect against HIV1 protease in cellular over isolated enzyme assay; assay type: functional
[10] = tested on: Human immunodeficiency virus 1; test: Antiviral activity in cells infected with wild-type HIV1 H93B in presence of NHS; assay type: functional; conditions: Human immunodeficiency virus 1, H93B; read-out: CIC95
[11] = tested on: Human immunodeficiency virus 1; test: Antiviral activity in cells infected with wild-type HIV1; assay type: functional; conditions: read-out: CIC95
[12] = tested on: Human immunodeficiency virus 1; test: Antiviral activity in cells infected with wild-type HIV1 1026-60C mutant; assay type: functional; conditions: Human immunodeficiency virus 1, 1026-60C; read-out: CIC95
[13] = tested on: Human immunodeficiency virus 1; test: Antiviral activity in cells infected with wild-type HIV1 4X mutant in presence of NHS; assay type: functional; conditions: Human immunodeficiency virus 1, 4X; read-out: CIC95

Structure (SMILES) | IC50 [3] | IC95 [1] | IC95 [2] | IC95 [4] | IC95 [5] | IC95 [6] | IC95 [7] | IC95 [8] | Ratio CIC95/IC50 [9] | IC95 [10] | IC95 [11] | IC95 [12] | IC95 [13]
O=C1N[C@@H]2c3ccccc3C(C3=C(O)[C@](Cc4ccccc4)(C[C@H](O)[C@H](Cc4ccccc4)NC(=O)O[C@H]4CCOC4)N=C3)C2O1 (some centres undefined) | 0.44 nM | 1250 nM | 156 nM | 625 nM | 1250 nM | 312 nM | 625 nM | 625 nM | 909 | 625 nM | 400 nM | 312 nM | 312 nM
CC(C)(C)OC(=O)N[C@@H](Cc1ccccc1)[C@@H](O)C[C@]1(Cc2ccccc2)N=CC(C2c3ccccc3[C@H]3NC(=O)OC23)=C1O (some centres undefined) | 2.5 nM | 10000 nM | 2500 nM | 156 nM | 2500 nM | 1250 nM | 625 nM | 156 nM | 80 | 312 nM | 200 nM | 625 nM | 5000 nM
O=C(N[C@@H](Cc1ccccc1)[C@@H](O)C[C@]1(Cc2ccccc2)N=CC([C@H]2c3ccccc3C[C@H]2O)=C1O)O[C@H]1CCOC1 | 2 nM | 1250 nM | 625 nM | 156 nM | 1250 nM | 312 nM | 156 nM | 78 nM | 50 | 156 nM | 100 nM | 156 nM | 1250 nM
CC(C)(C)NC(=O)[C@@H]1CN(Cc2cccnc2)CCN1C[C@@H](O)C[C@@H](Cc1ccccc1)C(=O)N[C@H]1c2ccccc2C[C@H]1O |  | 400 nM | 100 nM | 50 nM | 400 nM | 400 nM | 50 nM | 50 nM |  | 25 nM | 25 nM | 400 nM | 100 nM
NC(=O)C[C@H]1CC(C2=C(O)[C@](Cc3ccccc3)(C[C@H](O)[C@H](Cc3ccccc3)NC(=O)O[C@H]3CCOC3)N=C2)c2ccccc21 (some centres undefined) |  | 2500 nM | 625 nM | 1250 nM | 1250 nM | 625 nM | 625 nM | 312 nM |  | 1250 nM | 781 nM | 312 nM | 1250 nM

More lines, main results first:

IC50 [3] | Structure (SMILES) | IC95 [1] | IC95 [2] | IC95 [4] | IC95 [5] | IC95 [6] | IC95 [7] | IC95 [8] | Ratio CIC95/IC50 [9] | IC95 [10] | IC95 [11] | IC95 [12] | IC95 [13]
5.7 nM | O=C(N[C@@H](Cc1ccccc1)[C@@H](O)C[C@]1(Cc2ccccc2)N=CC([C@@H]2CNC(=O)c3ccccc32)=C1O)O[C@H]1CCOC1 |  |  |  |  |  |  |  | 137 |  | 781 nM |  | 
> 250 nM | CC(C)(C)CC(=O)N[C@@H](Cc1ccccc1)[C@@H](O)C[C@]1(Cc2ccccc2)N=CC(C2C[C@H](CC(N)=O)c3ccccc32)=C1O (some centres undefined) |  |  |  |  |  |  |  |  |  | 12500 nM |  | 
2 nM | NC(=O)O[C@@H]1Cc2ccccc2[C@@H]1C1=C(O)[C@](Cc2ccccc2)(C[C@H](O)[C@H](Cc2ccccc2)NC(=O)O[C@H]2CCOC2)N=C1 |  |  |  |  |  |  |  | 125 |  | 250 nM |  | 
96 nM | CC(C)(C)CC(=O)N[C@@H](Cc1ccccc1)[C@@H](O)C[C@]1(Cc2ccccc2)N=CC(C2c3ccccc3[C@H]3NC(=O)OC23)=C1O (some centres undefined) |  |  |  |  |  |  |  | 32.5 |  | 3120 nM |  | 
20.5 nM | CC(C)(C)OC(=O)N[C@@H](Cc1ccccc1)[C@@H](O)C[C@]1(Cc2ccccc2)N=CC(C2C[C@H](CC(N)=O)c3ccccc32)=C1O (some centres undefined) |  |  |  |  |  |  |  |  |  | > 400 nM |  | 
